{"source": "patent US9487504B2", "about": "“Imidazolyl analogs as syk inhibitors” (Merck Sharp & Dohme Corp., priority 2012, dated 2016)"}
{"target": "T1, recombinant human GST-Syk (Homo sapiens, UniProt P43405)", "T1 construct": "purchased Carna Biosciences 08-176", "assay": "Homogeneous Time-Resolved Fluorescence (HTRF) assay for the recombinant human Syk enzyme", "assay_type": "biochemical", "details": "ATP 25 μM, 10-dose titration, read-out: rhSYK Activity", "protocol": "(§1) Syk inhibition may be determined using the following assay protocol:\n(§2) Homogeneous Time-Resolved Fluorescence (HTRF) Assay for the Recombinant Human Syk Enzyme:\n(§3) A recombinant GST-hSyk fusion protein was used to measure potency of compounds to inhibit human Syk activity. The recombinant human GST-Syk (Carna Biosciences #08-176) ([…]) was incubated with various concentrations of the inhibitor diluted in DMSO (0.1% final concentration) for 10 minutes at room temperature in 15 mM Tris-HCl (pH 7.5), 0.01% tween 20, 2 mM DTT in 384 well plate format. To initiate the reaction the biotinylated substrate peptide (250 nM final concentration) that contains the phosphorylation site for Syk was added with magnesium (5 mM final concentration) and ATP (25 μM final concentration). Final volume of the reaction was 10 μL. Phosphorylation of the peptide was allowed to proceed for 45 minutes at room temperature. To quench the reaction and detect the phosphorylated product, 2 nM of a Europium-anti-phosphotyrosine antibody (Perkin Elmer #AD0161) and 70 nM SA-APC (Perkin-Elmer #CR130-100) were added together in 15 mM Tris pH 7.5, 40 mM EDTA, 0.01% tween 20. Final volume of the quenching solution was 10 μL. The resulting HTRF signal was measured after 30 minutes on an EnVision (Perkin-Elmer) reader using a time-resolved fluorescence protocol. IC50 was determined following 10-dose titration (10 μM to 0.508 nM) and four parameter logistic curve fitting using the Merck Assay Data Analyzer. The rhSyk activity (IC50) is expressed as +++ (100 nM or less), ++ (between 100 and 1000 nM), + (between 1 and 10 μM).", "units": {"IC50": "nM"}}
{"smiles": "Cc1ccnc(Nc2cc(C)cc(-n3cnc([C@]4(O)CC[C@@H](OC(=O)c5ccccc5)CC4)c3)n2)c1", "note": "[Example 51, cis-4-hydroxy-4-(1-{4-methyl-6-[(4-methylpyridin-2-yl)amino]pyridin-2-yl}-1H-imidazol-4-yl)cyclohexyl benzoate]", "IC50": "≤ 100"}
{"smiles": "Cc1cc(Nc2cc(C(C)(C)C)ccn2)nc(-n2cnc([C@]3(O)CC[C@@H](OC(=O)c4ccccc4)CC3)c2)c1", "note": "[Example 52, cis-4-(1-{6-[(4-tert-butylpyridin-2-yl)amino]-4-methylpyridin-2-yl}-1H-imidazol-4-yl)-4-hydroxycyclohexyl benzoate]", "IC50": "≤ 100"}
{"smiles": "Cc1cc(Nc2nccc(C(F)(F)F)n2)cc(-n2cnc(C3(O)CCC(=O)CC3)c2)c1", "note": "[Example 53, 4-hydroxy-4-[1-(3-methyl-5-{[4-(trifluoromethyl)pyrimidin-2-yl]amino}phenyl)-1H-imidazol-4-yl]cyclohexanone]", "IC50": "≤ 100"}
{"smiles": "Cc1cc(Nc2nccc(C(F)(F)F)n2)cc(-n2cnc([C@]3(O)CC[C@H](O)[C@@H](C)C3)c2)c1", "note": "[Example 54, (1S,3S,4S)-3-methyl-1-[1-(3-methyl-5-{[4-(trifluoromethyl)pyrimidin-2-yl]amino}phenyl)-1H-imidazol-4-yl]cyclohexane-1,4-diol]", "IC50": "≤ 100"}
{"smiles": "Cc1cc(Nc2nccc(C(F)(F)F)n2)cc(-n2cnc([C@@]3(O)CC[C@H](O)[C@@H](C)C3)c2)c1", "note": "[Example 55, (1R,3S,4S)-3-methyl-1-[1-(3-methyl-5-{[4-(trifluoromethyl)pyrimidin-2-yl]amino}phenyl)-1H-imidazol-4-yl]cyclohexane-1,4-diol]", "IC50": "≤ 100"}
{"smiles": "Cc1cc(Nc2nccc(C(F)(F)F)n2)cc(-n2cnc([C@]3(O)CC[C@@H](O)[C@@H](C)C3)c2)c1", "note": "[Example 56, (1S,3S,4R)-3-methyl-1-[1-(3-methyl-5-{[4-(trifluoromethyl)pyrimidin-2-yl]amino}phenyl)-1H-imidazol-4-yl]cyclohexane-1,4-diol]", "IC50": "≤ 100"}
{"smiles": "Cc1cc(Nc2ncc(F)c(C)n2)cc(-n2cnc([C@]3(O)CC[C@@H](O)CC3)c2)c1", "note": "[Example 57, cis-1-(1-{3-[(5-fluoro-4-methylpyrimidin-2-yl)amino]-5-methylphenyl}-1H-imidazol-4-yl)cyclohexane-1,4-diol]", "IC50": "≤ 100"}
{"smiles": "Cc1cc(Nc2ncc(F)c(C)n2)cc(-n2cnc([C@]3(O)CC[C@@H](OC(=O)c4ccccc4)CC3)c2)c1", "note": "[Example 58, cis-4-(1-{3-[(5-fluoro-4-methylpyrimidin-2-yl)amino]-5-methylphenyl}-1H-imidazol-4-yl)-4-hydroxycyclohexyl benzoate]", "IC50": "100 to 1000"}
{"smiles": "Cc1cc(Nc2ncc(F)c(C3CC3)n2)cc(-n2cnc([C@]3(O)CC[C@@H](O)CC3)c2)c1", "note": "[Example 59, cis-1-(1-{3-[(4-cyclopropyl-5-fluoropyrimidin-2-yl)amino]-5-methylphenyl}-1H-imidazol-4-yl)cyclohexane-1,4-diol]", "IC50": "≤ 100"}
{"smiles": "Cc1cc(Nc2ncc(F)c(C3CC3)n2)cc(-n2cnc([C@]3(O)CC[C@@H](OC(=O)c4ccccc4)CC3)c2)c1", "note": "[Example 60, cis-4-(1-{3-[(4-cyclopropyl-5-fluoropyrimidin-2-yl)amino]-5-methylphenyl}-1H-imidazol-4-yl)-4-hydroxycyclohexyl benzoate]", "IC50": "100 to 1000"}
{"smiles": "Cc1cc(Nc2cc(C(F)(F)F)ccn2)nc(-n2cnc([C@]3(O)CC[C@H](O)CC3)c2)c1", "note": "[Example 61, trans-1-[1-(4-methyl-6-{[4-(trifluoromethyl)pyridin-2-yl]amino}pyridin-2-yl)-1H-imidazol-4-yl]cyclohexane-1,4-diol]", "IC50": "≤ 100"}
{"smiles": "Cc1cc(Nc2cc(C(F)(F)F)ccn2)nc(-n2cnc([C@]3(O)CC[C@@H](O)CC3)c2)c1", "note": "[Example 62, cis-1-[1-(4-methyl-6-{[4-(trifluoromethyl)pyridin-2-yl]amino}pyridin-2-yl)-1H-imidazol-4-yl]cyclohexane-1,4-diol]", "IC50": "≤ 100"}
{"smiles": "Cc1cc(Nc2cc(C(F)(F)F)ccn2)nc(-n2cnc([C@]3(O)CC[C@H](OC(=O)c4ccccc4)CC3)c2)c1", "note": "[Example 63, trans-4-hydroxy-4-[1-(4-methyl-6-{[4-(trifluoromethyl)pyridin-2-yl]amino}pyridin-2-yl)-1H-imidazol-4-yl]cyclohexyl benzoate]", "IC50": "≤ 100"}
{"smiles": "Cc1cc(Nc2cc(C(F)(F)F)ccn2)nc(-n2cnc([C@]3(O)CC[C@@H](OC(=O)c4ccccc4)CC3)c2)c1", "note": "[Example 64, cis-4-hydroxy-4-[1-(4-methyl-6-{[4-(trifluoromethyl)pyridin-2-yl]amino}pyridin-2-yl)-1H-imidazol-4-yl]cyclohexyl benzoate]", "IC50": "≤ 100"}
{"smiles": "Cc1cc(Nc2nccc(C(F)(F)F)n2)cc(-n2cnc(C3(O)CCC(O)CC3)c2)c1", "note": "(stereo not drawn) [Example 65, trans-1-[1-(3-methyl-5-{[4-(trifluoromethyl)pyrimidin-2-yl]amino}phenyl)-1H-imidazol-4-yl]cyclohexane-1,4-diol]", "IC50": "≤ 100"}
{"smiles": "Cc1cc(Nc2nccc(C(F)(F)F)n2)cc(-n2cnc([C@]3(O)CC[C@H](OC(=O)c4ccccc4)CC3)c2)c1", "note": "[Example 66, trans-4-hydroxy-4-[1-(3-methyl-5-{[4-(trifluoromethyl)pyrimidin-2-yl]amino}phenyl)-1H-imidazol-4-yl]cyclohexyl benzoate]", "IC50": "100 to 1000"}
{"smiles": "Cc1cc(Nc2nccc(C(F)(F)F)n2)cc(-n2cc(C(=O)O)nc2C)c1", "note": "[Example 67, 2-Methyl-1-(3-methyl-5-{[4-(trifluoromethyl)pyrimidin-2-yl]amino}phenyl)-1H-imidazole-4-carboxylic acid]", "IC50": "≤ 100"}
{"smiles": "Cc1cc(Nc2nccc(C(F)(F)F)n2)cc(-n2cc(C(C)(C)O)nc2C)c1", "note": "[Example 68, 2-[2-Methyl-1-(3-methyl-5-{[4-(trifluoromethyl)pyrimidin-2-yl]amino}phenyl)-1H-imidazol-4-yl]propan-2-ol]", "IC50": "100 to 1000"}
{"smiles": "COC(=O)c1cn(-c2cccc(Nc3cc(Cl)ccn3)n2)cn1", "note": "[Example 69, Methyl 1-{6-[(4-chloropyridin-2-yl)amino]pyridin-2-yl}-1H-imidazole-4-carboxylate]", "IC50": "100 to 1000"}
{"smiles": "O=C(c1cn(-c2cccc(Nc3nccc(C(F)(F)F)n3)c2)cn1)N1CCCC1", "note": "[Example 70, Pyrrolidin-1-yl[1-(3-{[4-(trifluoromethyl)pyrimidin-2-yl]amino}phenyl)-1H-imidazol-4-yl]methanone]", "IC50": "100 to 1000"}
{"smiles": "Cc1cc(Nc2nccc(C(F)(F)F)n2)cc(-n2cnc(-c3ccc(C(=O)O)cc3)c2)c1", "note": "[Example 71, 4-[1-(3-methyl-5-{[4-(trifluoromethyl)pyrimidin-2-yl]amino}-phenyl)-1H-imidazol-4-yl]benzoic acid]", "IC50": "≤ 100"}
{"smiles": "Cc1cc(Nc2nccc(C)n2)cc(-n2cnc3cc(C(=O)O)ccc32)c1", "note": "[Example 72, 1-{3-methyl-5-[(4-methylpyrimidin-2-yl)amino]phenyl}-1H-benzimidazole-5-carboxylic acid]", "IC50": "100 to 1000"}
{"smiles": "COC(=O)c1ccc2c(c1)ncn2-c1cc(C)cc(Nc2nccc(C)n2)c1", "note": "[Example 73, Methyl 1-{3-methyl-5-[(4-methyl-pyrimidin-2-yl)amino]phenyl}-1H-benzimidazole-5-carboxylate]", "IC50": "≤ 100"}
{"smiles": "Cc1cc(Nc2cc(C(F)(F)F)ccn2)nc(-n2cnc(CCC(=O)O)c2)c1", "note": "[Example 74, 3-[1-(4-methyl-6-{[4-(trifluoromethyl)-pyridin-2-yl]amino}-pyridin-2-yl)-1H-imidazol-4-yl]-propanoic acid]", "IC50": "100 to 1000"}
{"smiles": "Cc1cc(Nc2nccc(C3CC3)n2)cc(-n2cnc(CCC(=O)O)c2)c1", "note": "[Example 75, 3-(1-{3-[(4-cyclopropylpyrimidin-2-yl)amino]-5-methylphenyl}-1H-imidazol-4-yl)propanoic acid]", "IC50": "≤ 100"}
{"smiles": "Cc1cc(Nc2nccc(C(F)(F)F)n2)cc(-n2cnc(CCC(=O)O)c2)c1", "note": "[Example 76, 3-[1-(3-methyl-5-{[4-(trifluoromethyl)pyrimidin-2-yl]amino}-phenyl)-1H-imidazol-4-yl]propanoic acid]", "IC50": "≤ 100"}
{"smiles": "Cc1cc(Nc2nccc(C(F)(F)F)n2)cc(-n2cnc(CC#N)c2)c1", "note": "[Example 77, [1-(3-methyl-5-{[4-(trifluoromethyl)pyrimidin-2-yl]amino}-phenyl)-1H-imidazol-4-yl]acetonitrile]", "IC50": "≤ 100"}
{"smiles": "Cc1cc(Nc2nccc(C(F)(F)F)n2)cc(-n2cnc(C(=O)O)c2)c1", "note": "[Example 78, 1-(3-methyl-5-{[4-(trifluoromethyl)-pyrimidin-2-yl]amino}-phenyl)-1H-imidazole-4-carboxylic acid]", "IC50": "≤ 100"}
{"smiles": "Nc1cc(Nc2cc(Cl)ccn2)nc(-n2cnc(C(O)(C3CC3)C3CC3)c2)c1", "note": "[Example 79, (1-{4-amino-6-[(4-chloropyridin-2-yl)amino}pyridin-2-yl}-1H-imidazol-4-yl)(dicyclopropyl)methanol]", "IC50": "≤ 100"}
{"smiles": "Cc1cc(Nc2cc(Cl)ccn2)nc(-n2cnc(C(O)(C3CC3)C3CC3)c2)c1", "note": "[Example 80, (1-{6-[(4-chloropyridin-2-yl)amino]-4-methylpyridin-2-yl}-1H-imidazol-4-yl)(dicyclopropyl)-methanol]", "IC50": "≤ 100"}
{"target": "T1, recombinant human GST-Syk", "assay": "Homogeneous Time-Resolved Fluorescence (HTRF) assay for the recombinant human Syk enzyme", "assay_type": "biochemical", "details": "ATP 25 μM, 10-dose titration, read-out: rhSYK IC50", "protocol": "as §1, §2, §3", "units": {"IC50": "nM"}}
{"smiles": "Cc1cc(Nc2cc(C(F)(F)F)ccn2)nc(-n2cnc([C@]3(O)CC[C@@H](O)CC3)c2)c1", "note": "[Example 62, cis-1-[1-(4-methyl-6-{[4-(trifluoromethyl)pyridin-2-yl]amino}pyridin-2-yl)-1H-imidazol-4-yl]cyclohexane-1,4-diol]", "IC50": 1.36}
{"smiles": "Cc1cc(Nc2nccc(C(F)(F)F)n2)cc(-n2cnc(-c3ccc(C(=O)O)cc3)c2)c1", "note": "[Example 71, 4-[1-(3-methyl-5-{[4-(trifluoromethyl)pyrimidin-2-yl]amino}-phenyl)-1H-imidazol-4-yl]benzoic acid]", "IC50": 1.68}
